The values that follow are results of earlier work, collected in patent US10765646B2, “Methods of treating developmental encephalopathies” (Ovid Therapeutics Inc., priority 2017, dated 2020).

Structures are written as SMILES.

A word on the Ki: it is the equilibrium dissociation constant of an inhibitor or competing ligand from its target.

The conditions of data set [1]: 5 mg (±)-ketamine i.v. infusion (30 min), single dose, fasting, healthy subjects, serum.
The conditions of data set [2]: estimated.
For data set [3] the following is noted: relative to ketamine.
In a further data set the target is NMDA receptor. To be noted: noncompetitive NMDA receptor antagonist.

For the compound `CNC1(c2ccccc2Cl)CCCCC1=O` (racemic) [ketamine, (R,S)-2-(2-chlorophenyl)-2-(methylamino)cyclohexanone], in data set [1], the “AUC0-∞ of (±)-ketamine” value was 59.9 ± 13.2 ng·h/mL, the “Cmax of (±)-ketamine” value was 33.7 ± 9.74 ng/mL and the “T1/2 (apparent terminal half-life) of (±)-ketamine” value is 6.99 ± 5.22 h. Further, the elimination half-life in data set [2] was 2 to 3 h.

Turning to `NC1(c2ccccc2Cl)CCCCC1=O` (racemic) [norketamine, (R,S)-2-(2-chlorophenyl)-2-(amino)cyclohexanone], the elimination half-life in data set [2] is 4 h. In data set [3], the “times less potent as an anesthetic in comparison (with ketamine)” value is reported as 3-5 times.

`N[C@@]1(c2ccccc2Cl)CCCCC1=O` [(R)-(−)-norketamine]: the Ki at NMDA receptor was 13 µM.

For the compound `N[C@]1(c2ccccc2Cl)CCCCC1=O` [(S)-(+)-norketamine], on NMDA receptor, the inhibitory constant (Ki) was 1.7 µM.
